# Test results from ChEMBL document CHEMBL1152154, “Bacterial translation inhibitors, 1-acylindazol-3-ols as anthranilic acid mimics” (2008).
# What was measured:
# Format in all cases: functional
# Staphylococcus aureus [1] = assay: Antibacterial activity against Staphylococcus aureus UC9218 in presence of 10% human serum
# Staphylococcus aureus [2] = assay: Antibacterial activity against Staphylococcus aureus UC9218
# Staphylococcus aureus [3] = assay: Antibacterial activity against Staphylococcus aureus RN4220 at 100 uM by transcription-translation assay
Compound,MIC (Staphylococcus aureus [1]) [µg/mL],MIC (Staphylococcus aureus [2]) [µg/mL],inhibition at 100 µM (Staphylococcus aureus [3]) [%]
Cn1c(C(=O)n2[nH]c(=O)c3cc(C#N)ccc32)cc2cccc(S(=O)(=O)c3ccccc3)c21,64,4,–
O=C(c1cccc(S(=O)(=O)N2CCOCC2)c1)n1[nH]c(=O)c2cc(Br)ccc21,> 128,> 128,3
O=C(c1cnc(SCc2ccccc2)cn1)n1[nH]c(=O)c2cc(Br)ccc21,> 128,> 128,5
O=C(c1cc(-c2ccccc2)on1)n1[nH]c(=O)c2cc(Br)ccc21,> 128,16,42
N#Cc1ccc2c(c1)c(=O)[nH]n2C(=O)c1cc2ccccc2[nH]1,> 128,64,99
Cn1c(C(=O)n2[nH]c(=O)c3cc(C#N)ccc32)cc2ccccc21,> 128,64,49
N#Cc1ccc2c(c1)c(=O)[nH]n2C(=O)c1cnc(SCc2ccccc2)cn1,> 128,> 128,22
Cn1c(C(=O)n2[nH]c(=O)c3cc(Br)ccc32)cc2cccc(S(=O)(=O)c3ccccc3)c21,128,2,–
O=C(c1cc2cccc(S(=O)(=O)c3ccccc3)c2[nH]1)n1[nH]c(=O)c2cc(Br)ccc21,128,16,–
N#Cc1ccc2c(c1)c(=O)[nH]n2C(=O)c1cc2cccc(S(=O)(=O)c3ccccc3)c2[nH]1,> 128,16,–
O=C(c1cncc(SCc2ccccc2)n1)n1[nH]c(=O)c2cc(Br)ccc21,> 128,32,28
CC(C)Sc1ccc(C(=O)n2[nH]c(=O)c3cc(Br)ccc32)cn1,> 128,> 128,49
N#Cc1ccc2c(c1)c(=O)[nH]n2C(=O)c1cncc(SCc2ccccc2)n1,> 128,> 128,7
N#Cc1ccc2c(c1)c(=O)[nH]n2C(=O)c1cccc(S(=O)(=O)N2CCOCC2)c1,64,64,10
CN(c1ccc(Cl)cc1)S(=O)(=O)c1cc(Br)cc(C(=O)n2[nH]c(=O)c3cc(Br)ccc32)c1,> 128,> 128,29

# The next lines start with results.
MIC (Staphylococcus aureus [1]) [µg/mL],MIC (Staphylococcus aureus [2]) [µg/mL],Compound,inhibition at 100 µM (Staphylococcus aureus [3]) [%]
> 128,> 128,O=C(c1cccc(S(=O)(=O)N2CCOCC2)c1)n1[nH]c(=O)c2cc(Cl)ccc21,5
8,0.5,N#Cc1ccc2c(c1)c(=O)[nH]n2C(=O)c1cccc(S(=O)(=O)N2CCc3ccccc32)c1,13
> 128,16,Cc1ccc2c(c1)c(=O)[nH]n2C(=O)c1cccc(S(=O)(=O)N2CCc3cc(Cl)ccc32)c1,49
> 128,8,O=C(c1ccc(S(=O)(=O)N2CCc3cc(Cl)ccc32)cc1)n1[nH]c(=O)c2cc(Br)ccc21,56
> 128,64,N#Cc1ccc2c(c1)c(=O)[nH]n2C(=O)c1ccc(S(=O)(=O)N2CCc3cc(Cl)ccc32)cc1,5
> 128,8,O=C(c1cccc(S(=O)(=O)N2CCc3cc(Cl)ccc32)c1)n1[nH]c(=O)c2cc(C(F)(F)F)ccc21,62
> 128,> 128,CN(c1ccc(Cl)cc1)S(=O)(=O)c1cccc(C(=O)n2[nH]c(=O)c3cc(Br)ccc32)c1,55
> 128,16,O=C(c1ccc(S(=O)(=O)N2CCc3cc(Cl)ccc32)cc1)n1[nH]c(=O)c2cc(Cl)ccc21,61
> 128,8,O=C(c1ccc(S(=O)(=O)N2CCc3cc(Cl)ccc32)cc1)n1[nH]c(=O)c2ccc(Cl)cc21,86
128,4,O=C(c1cccc(S(=O)(=O)N2CCc3cc(Cl)ccc32)c1)n1[nH]c(=O)c2cc(Br)ccc21,20
128,8,O=C(c1cccc(S(=O)(=O)N2CCc3ccccc32)c1)n1[nH]c(=O)c2cc(Br)ccc21,52
128,4,O=C(c1cccc(S(=O)(=O)N2CCc3cc(Cl)ccc32)c1)n1[nH]c(=O)c2cc(Cl)ccc21,80
> 128,4,O=C(c1cccc(S(=O)(=O)N2CCc3cc(Cl)ccc32)c1)n1[nH]c(=O)c2cc(OC(F)(F)F)ccc21,78
> 128,8,O=C(c1cccc(S(=O)(=O)N2CCc3cc(Cl)ccc32)c1)n1[nH]c(=O)c2ccc(Cl)cc21,78
> 128,8,O=C(c1cccc(S(=O)(=O)N2CCc3cc(Cl)ccc32)c1)n1[nH]c(=O)c2ccc(Br)cc21,67
